Structures can show the parent of a compound that is named as a salt.
target: T1, CDK11A (Homo sapiens, UniProt Q9UQ88); details: displacement of SNS-032-Atto590 probe (0.002 μM) from CDK11A-p58 (0.032 uM), fluorescence polarization
T1 sequence (Q9UQ88 346-783): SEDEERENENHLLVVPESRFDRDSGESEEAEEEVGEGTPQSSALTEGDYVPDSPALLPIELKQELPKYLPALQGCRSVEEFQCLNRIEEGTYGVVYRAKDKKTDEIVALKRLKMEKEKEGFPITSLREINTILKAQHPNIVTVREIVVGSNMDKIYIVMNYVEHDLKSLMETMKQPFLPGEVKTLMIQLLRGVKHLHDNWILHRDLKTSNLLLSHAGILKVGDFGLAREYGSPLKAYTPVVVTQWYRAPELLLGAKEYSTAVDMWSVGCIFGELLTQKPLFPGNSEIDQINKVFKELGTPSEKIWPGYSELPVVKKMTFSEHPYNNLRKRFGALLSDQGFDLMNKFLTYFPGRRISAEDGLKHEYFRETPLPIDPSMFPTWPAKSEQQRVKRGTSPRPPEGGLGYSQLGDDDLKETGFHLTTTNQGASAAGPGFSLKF
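Note: compound preincubated 30 min with CDK11A-p58, then probe added and polarization (mP) read 15 min later, 0% displacement is probe plus enzyme, 100% is probe alone.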

DC50 | Structure (SMILES)
0.055 µM | CCOc1ccc(F)c(-c2ccc3[nH]nc(NC(=O)[C@@H]4CCCNC4)c3c2)c1 [cpd 22, (3R)-N-[5-(5-Ethoxy-2-fluorophenyl)-1H-indazol-3-yl]piperidine-3-carboxamide hydrochloride]
0.31 µM | CC(C)c1ccc(Cl)c(-c2ccc3[nH]nc(NC(=O)[C@@H]4CCCNC4)c3c2)c1 [cpd 48, (3R)-N-{5-[2-Chloro-5-(propan-2-yl)phenyl]-1H-indazol-3-yl}piperidine-3-carboxamide hydrochloride]
0.058 µM | NCCCN1CCC(C(=O)Nc2n[nH]c3ccc(-c4c(F)cccc4Cl)cc23)CC1 [cpd 66, 1-(3-Aminopropyl)-N-[5-(2-chloro-6-fluorophenyl)-1H-indazol-3-yl]piperidine-4-carboxamide dihydrochloride]
0.027 µM | CC(C)Oc1ccc2[nH]nc(NC(=O)[C@@H]3CCCNC3)c2c1 [cpd 230, (3R)-N-[5-(Propan-2-yloxy)-1H-indazol-3-yl]piperidine-3-carboxamide hydrochloride]
0.133 µM | CN(C)C1CCC(C(=O)Nc2n[nH]c3ccc(-c4c(Cl)cccc4Cl)cc23)CC1 (stereo not drawn) [compound 166, N-[5-(2,6-Dichlorophenyl)-1H-indazol-3-yl]-4-(dimethylamino)cyclohexanecarboxamide hydrochloride]
0.822 µM | CCc1ccccc1-c1ccc2[nH]nc(NC(=O)C3CCN(C)CC3)c2c1 [cpd 88, N-[5-(2-Ethylphenyl)-1H-indazol-3-yl]-1-methylpiperidine-4-carboxamide hydrochloride]
0.821 µM | CC(C)(C)COC(=O)n1nc(NC(=O)[C@@H]2CCCNC2)c2cc(-c3cc(C#N)ccc3Cl)ccc21 [cpd 212, 2,2-Dimethylpropyl 5-(2-chloro-5-cyanophenyl)-3-{[(3R)-piperidin-3-ylcarbonyl]amino}-1H-indazole-1-carboxylate hydrochloride]
0.177 µM | O=C(Nc1n[nH]c2ccc(-c3c(Cl)cccc3Cl)cc12)[C@H]1CCCNC1 [compound 170, (3S)-N-[5-(2,6-Dichlorophenyl)-1H-indazol-3-yl]piperidine-3-carboxamide hydrochloride]
0.03 µM | N#Cc1ccc(C#N)c(-c2ccc3[nH]nc(NC(=O)[C@@H]4CCCNC4)c3c2)c1 [cpd 53, (3R)-N-[5-(2,5-Dicyanophenyl)-1H-indazol-3-yl]piperidine-3-carboxamide hydrochloride]
0.988 µM | CN1CCC(C(=O)Nc2n[nH]c3ccc(-c4ccc(F)cc4)cc23)CC1 [cpd 87, N-[5-(4-Fluorophenyl)-1H-indazol-3-yl]-1-methylpiperidine-4-carboxamide hydrochloride]
0.11 µM | CNC1CCC(C(=O)Nc2n[nH]c3ccc(-c4c(Cl)cccc4Cl)cc23)CC1 (stereo not drawn) [compound 144, N-[5-(2,6-Dichlorophenyl)-1H-indazol-3-yl]-4-(methylamino)cyclohexanecarboxamide hydrochloride]
0.534 µM | Cc1cc(C#N)ccc1-c1ccc2[nH]nc(NC(=O)C3CCN(C)CC3)c2c1 [cpd 113, N-[5-(4-Cyano-2-methylphenyl)-1H-indazol-3-yl]-1-methylpiperidine-4-carboxamide hydrochloride]
0.066 µM | CN1CCC(C(=O)Nc2n[nH]c3ccc(-c4c(F)cccc4Cl)cc23)CC1 [cpd 64, N-[5-(2-Chloro-6-fluorophenyl)-1H-indazol-3-yl]-1-methylpiperidine-4-carboxamide hydrochloride]
0.02 µM | O=C(Nc1n[nH]c2ccc(-c3cc(-c4ncon4)ccc3Cl)cc12)[C@@H]1CCCNC1 [cpd 58, (3R)-N-{5-[2-Chloro-5-(1,2,4-oxadiazol-3-yl)phenyl]-1H-indazol-3-yl}piperidine-3-carboxamide dihydrochloride]
0.165 µM | CN1CCC(C(=O)Nc2n[nH]c3ccc(-c4cc([N+](=O)[O-])ccc4F)cc23)CC1 [cpd 115, N-[5-(2-Fluoro-5-nitrophenyl)-1H-indazol-3-yl]-1-methylpiperidine-4-carboxamide hydrochloride]
0.026 µM | COC(=O)c1ccc(Cl)c(-c2ccc3[nH]nc(NC(=O)[C@@H]4CCNC4)c3c2)c1 [cpd 37, Methyl 4-chloro-3-(3-{[(3R)-pyrrolidin-3-ylcarbonyl]amino}-1H-indazol-5-yl)benzoate hydrochloride]
0.221 µM | O=C(Nc1n[nH]c2ccc(-c3c(Cl)cccc3Cl)cc12)C12CCN(CC1)CC2 [compound 160, N-[5-(2,6-Dichlorophenyl)-1H-indazol-3-yl]-1-azabicyclo[2.2.2]octane-4-carboxamide]
1.01 µM | CC(C)OC(=O)n1nc(NC(=O)[C@@H]2CCC(C)(C)NC2)c2cc(-c3cc(C#N)ccc3Cl)ccc21 (single isomer, unassigned) [cpd 226, hydrochloride]

DC50 | Structure (SMILES)
0.11 µM | CCCCN1CCC(C(=O)Nc2n[nH]c3ccc(-c4c(F)cccc4Cl)cc23)CC1 [cpd 65, 1-Butyl-N-[5-(2-chloro-6-fluorophenyl)-1H-indazol-3-yl]piperidine-4-carboxamide hydrochloride]
0.038 µM | O=C(Nc1n[nH]c2ccc(-c3ccc(F)cc3F)cc12)[C@@H]1CCCNC1 [cpd 30, (3R)-N-[5-(2,4-Difluorophenyl)-1H-indazol-3-yl]piperidine-3-carboxamide hydrochloride]
0.02 µM | CCOc1ccc2[nH]nc(NC(=O)[C@@H]3CCCNC3)c2c1 [cpd 229, (3R)-N-(5-Ethoxy-1H-indazol-3-yl)piperidine-3-carboxamide hydrochloride]
0.025 µM | COc1ccc(Cl)c(-c2ccc3[nH]nc(NC(=O)[C@@H]4CCCNC4)c3c2)c1 [cpd 18, (3R)-N-[5-(2-Chloro-5-methoxyphenyl)-1H-indazol-3-yl]piperidine-3-carboxamide hydrochloride]
0.036 µM | O=C(Nc1n[nH]c2ccc(-c3cc(Cl)ccc3Cl)cc12)[C@@H]1CCCNC1 [cpd 13, (3R)-N-[5-(2,5-Dichlorophenyl)-1H-indazol-3-yl]piperidine-3-carboxamide hydrochloride]
0.438 µM | COc1c(F)cc(F)c(-c2ccc3[nH]nc(NC(=O)C4CCN(C)CC4)c3c2)c1F [compound 131, 1-Methyl-N-[5-(2,4,6-trifluoro-3-methoxyphenyl)-1H-indazol-3-yl]piperidine-4-carboxamide hydrochloride]
0.259 µM | CN1CCC(C(=O)Nc2n[nH]c3ccc(-c4ccc(Cl)cc4Cl)cc23)CC1 [cpd 106, N-[5-(2,4-Dichlorophenyl)-1H-indazol-3-yl]-1-methylpiperidine-4-carboxamide hydrochloride]
0.095 µM | CCCCCN1CCC(C(=O)Nc2n[nH]c3ccc(-c4cc(C#N)ccc4Cl)cc23)CC1 [compound 142, N-[5-(2-Chloro-5-cyanophenyl)-1H-indazol-3-yl]-1-pentylpiperidine-4-carboxamide hydrochloride]
0.665 µM | CN1CCC(C(=O)Nc2n[nH]c3ccc(-c4c(F)cc(F)cc4F)cc23)CC1 [compound 123, 1-Methyl-N-[5-(2,4,6-trifluorophenyl)-1H-indazol-3-yl]piperidine-4-carboxamide hydrochloride]
0.364 µM | CN1CCC(C(=O)Nc2n[nH]c3ccc(-c4c(F)cccc4F)cc23)CC1 [cpd 105, N-[5-(2,6-Difluorophenyl)-1H-indazol-3-yl]-1-methylpiperidine-4-carboxamide hydrochloride]
0.786 µM | CN1CCC(C(=O)Nc2n[nH]c3ccc(-c4ccc(O)c(C#N)c4)cc23)CC1 [compound 135, N-[5-(3-Cyano-4-hydroxyphenyl)-1H-indazol-3-yl]-1-methylpiperidine-4-carboxamide hydrochloride]
0.1 µM | CC(C)OC(=O)c1ccc(Cl)c(-c2ccc3[nH]nc(NC(=O)[C@@H]4CCCNC4)c3c2)c1 [cpd 56, Propan-2-yl 4-chloro-3-(3-{[(3R)-piperidin-3-ylcarbonyl]amino}-1H-indazol-5-yl)benzoate hydrochloride]
0.136 µM | CC(C)CN1CCC(C(=O)Nc2n[nH]c3ccc(-c4c(Cl)cccc4Cl)cc23)CC1 [cpd 70, N-[5-(2,6-Dichlorophenyl)-1H-indazol-3-yl]-1-(2-methylpropyl)piperidine-4-carboxamide]
0.139 µM | N#Cc1ccc(Cl)c(-c2ccc3[nH]nc(NC(=O)C4CCNCC4)c3c2)c1 [cpd 61, N-[5-(2-Chloro-5-cyanophenyl)-1H-indazol-3-yl]piperidine-4-carboxamide hydrochloride]
0.339 µM | NCCC(=O)Nc1n[nH]c2ccc(-c3c(Cl)cccc3Cl)cc12 [compound 175, N-[5-(2,6-Dichlorophenyl)-1H-indazol-3-yl]-b-alaninamide hydrochloride]
0.04 µM | N#Cc1ccc(Cl)c(-c2ccc3[nH]nc(NC(=O)C4CC(NC5CCCC5)C4)c3c2)c1 (stereo not drawn) [compound 154, N-[5-(2-Chloro-5-cyanophenyl)-1H-indazol-3-yl]-3-(cyclopentylamino)cyclobutanecarboxamide hydrochloride]
0.042 µM | O=C(Nc1n[nH]c2ccc(-c3c(F)cccc3Cl)cc12)[C@@H]1CCCNC1 [compound 172, (3R)-N-[5-(2-Chloro-6-fluorophenyl)-1H-indazol-3-yl]piperidine-3-carboxamide hydrochloride]
0.019 µM | Nc1ccc(Cl)c(-c2ccc3[nH]nc(NC(=O)[C@@H]4CCCNC4)c3c2)c1 [cpd 34, (3R)-N-[5-(5-Amino-2-chlorophenyl)-1H-indazol-3-yl]piperidine-3-carboxamide dihydrochloride]
